Where a SMILES comes first, the peptide text is derived from it. [ ]: non-standard residue; d: D form. Ac6c = NC1(C(=O)O)CCCCC1; Ac5c = NC1(C(=O)O)CCCC1; Ac4c = NC1(C(=O)O)CCC1; Deg = CCC(N)(CC)C(=O)O; Ac3c = NC1(C(=O)O)CC1; Aib = CC(C)(N)C(=O)O
Key:
[1] = Compound is evaluated for sweet potency; +=Sweet
[2] = Compound is evaluated for sweet potency; -=Bitter

Row | Compound | Sweetness potency [1] | Sweetness potency [2]
1 | COC(=O)C1(NC(=O)[C@H](C)NC(=O)[C@@H](N)CC(=O)O)CCCCCCC1 | – | Bitter
2 | CCC(CC)(NC(=O)[C@H](C)NC(=O)[C@@H](N)CC(=O)O)C(=O)OC (H-Asp-Ala-[Deg]-OMe) | Sweet | –
3 | COC(=O)C1(NC(=O)[C@H](C)NC(=O)[C@@H](N)CC(=O)O)CCCCCC1 | – | Bitter
4 | COC(=O)C(C)(C)NC(=O)[C@H](C)NC(=O)[C@@H](N)CC(=O)O (H-Asp-Ala-[Aib]-OMe) | Sweet | –

Further lines, results first:

Row | Sweetness potency [1] | Sweetness potency [2] | Compound
5 | Sweet | – | COC(=O)C1(NC(=O)[C@H](C)NC(=O)[C@@H](N)CC(=O)O)CC1 (H-Asp-Ala-[Ac3c]-OMe)
6 | Sweet | – | COC(=O)C1(NC(=O)[C@H](C)NC(=O)[C@@H](N)CC(=O)O)CCCCC1 (H-Asp-Ala-[Ac6c]-OMe)
7 | Sweet | – | COC(=O)C1(NC(=O)[C@H](C)NC(=O)[C@@H](N)CC(=O)O)CCC1 (H-Asp-Ala-[Ac4c]-OMe)
8 | Sweet | – | COC(=O)C1(NC(=O)[C@H](C)NC(=O)[C@@H](N)CC(=O)O)CCCC1 (H-Asp-Ala-[Ac5c]-OMe)

— ChEMBL document CHEMBL1122825, “Peptide sweeteners. 8. Synthesis and structure-taste relationship studies of L-aspartyl-D-alanyl tripeptides” (J Med Chem, 1985)
